Drawing on patent publication US20260285875A1, “INHIBITORS OF PARG” (858 Therapeutics, Inc., priority 2023, published 2026), this text covers IC50 for 10 compounds.

Where only a bound is given, the exact number is not on record here.

In general, IC50 refers to the point on the concentration scale where inhibition reaches its midpoint.

The target of the experiment is T1, cellular PARG (Homo sapiens, UniProt Q86W56).
T1 construct: endogenous in cells; host or cells: HeLa
Briefly: Nuclear PAR accumulation assay (immunofluorescence high-content imaging, MMS-treated HeLa cells). It is filed as cell-based. Conditions: 1 hour compound then MMS 50 μg/mL for an additional hour. As to the method: HeLa cells were plated at 15,000 cells/well in a 96-well plate the day before compound treatment and then treated with varying concentrations of test compound and incubated for 1 hour at 37° C.+5% CO2. Following test compound treatment, methylmethane sulfonate (MMS) was added to a final concentration of 50 μg/mL and the cells were incubated for an additional hour. Following treatment, the cells were fixed with ice cold 95% methanol and the plates sealed and placed at -20° C. for 15 minutes. The cells were then washed once with phosphate buffered saline (PBS) and permeabilized with 0.10% Triton-X 100 for 20 minutes at room temperature. […] The cells were then washed three times with PBS before incubation with a fluorescently conjugated goat anti-mouse antibody (Invitrogen A32723) diluted 1:500 in 5% FBS+0.1% Tween-20+PBS for 1 hour at room temperature. The cells were again washed three times with PBS and the nuclei labeled by incubating with 1 μg/mL DAPI (4′,6-diamidino-2-phenylindole). Nuclear PAR accumulation was evaluated using high-content fluorescence microscopy. Four fields for each well were acquired at 20× magnification resulting in at least 1,000 cells analyzed per well. […] Both the average intensity per nucleus and percent PAR positive cells were quantified. […] Concentration-response-curves and IC50 values were generated using four parameter logistic curve fit software.
Representative data for exemplary compounds is presented in Table 32, Table 33 and Table 34.

T1 sequence (Q86W56 whole entry): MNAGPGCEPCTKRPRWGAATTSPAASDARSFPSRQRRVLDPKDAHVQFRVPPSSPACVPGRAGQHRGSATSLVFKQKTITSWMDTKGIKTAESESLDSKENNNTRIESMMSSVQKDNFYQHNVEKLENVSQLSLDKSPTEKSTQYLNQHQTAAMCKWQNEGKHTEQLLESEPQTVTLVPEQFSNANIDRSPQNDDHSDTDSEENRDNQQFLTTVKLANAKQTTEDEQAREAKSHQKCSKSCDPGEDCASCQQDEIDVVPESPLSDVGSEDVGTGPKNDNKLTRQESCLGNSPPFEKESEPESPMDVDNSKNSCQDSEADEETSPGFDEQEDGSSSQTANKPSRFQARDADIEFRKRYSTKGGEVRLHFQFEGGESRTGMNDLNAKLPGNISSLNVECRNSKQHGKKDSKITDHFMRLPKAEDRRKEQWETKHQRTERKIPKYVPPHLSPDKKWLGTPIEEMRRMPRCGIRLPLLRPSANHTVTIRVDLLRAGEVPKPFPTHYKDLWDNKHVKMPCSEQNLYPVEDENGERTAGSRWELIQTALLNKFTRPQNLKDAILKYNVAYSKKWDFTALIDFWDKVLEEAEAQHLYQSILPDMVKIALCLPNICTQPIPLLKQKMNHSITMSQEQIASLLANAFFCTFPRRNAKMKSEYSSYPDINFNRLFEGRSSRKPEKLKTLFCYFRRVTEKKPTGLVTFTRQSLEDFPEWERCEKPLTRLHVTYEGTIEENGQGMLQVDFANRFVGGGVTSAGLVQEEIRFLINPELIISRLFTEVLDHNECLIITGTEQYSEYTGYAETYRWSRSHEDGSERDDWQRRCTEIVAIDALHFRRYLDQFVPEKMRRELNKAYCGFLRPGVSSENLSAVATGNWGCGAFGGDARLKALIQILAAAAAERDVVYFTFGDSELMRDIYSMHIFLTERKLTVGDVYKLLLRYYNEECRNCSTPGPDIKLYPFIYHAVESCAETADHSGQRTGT

Compound `Cn1cc(CN2C(=O)c3cc(S(=O)(=O)NC4(C)CC4)cc(-c4ccc(F)cc4)c3N3CC(C)(C)N=C23)cn1` [Example 17, 9-(4-fluorophenyl)-2,2-dimethyl-4-((1-methyl-1H-pyrazol-4-yl)methyl)-N-(1-methylcyclopropyl)-5-oxo-1,2,4,5-tetrahydroimidazo[1,2-a]quinazoline-7-sulfonamide] had a concentration for half-maximal inhibition (IC50) of less than 100 nM. The result for `Cn1cc(CN2C(=O)c3cc(S(=O)(=O)NC4(C)CC4)cc(Br)c3N3CCN=C23)cn1` [Example 18, 9-bromo-4-((1-methyl-1H-pyrazol-4-yl)methyl)-N-(1-methylcyclopropyl)-5-oxo-1,2,4,5-tetrahydroimidazo[1,2-a]quinazoline-7-sulfonamide] reads 100 to 1000 nM; that for `CC(C)OC[C@@H]1CN=C2N(Cc3cnn(C)c3)C(=O)c3cc(S(=O)(=O)NC4(C)CC4)ccc3N21` [Example 19, (S)-1-(isopropoxymethyl)-4-((1-methyl-1H-pyrazol-4-yl)methyl)-N-(1-methylcyclopropyl)-5-oxo-1,2,4,5-tetrahydroimidazo[1,2-a]quinazoline-7-sulfonamide], less than 100 nM; that for `Cc1cc(F)ccc1-c1cc(S(=O)(=O)NC2(C)CC2)cc2c1N1CCN=C1N(Cc1cnn(C)c1)C2=O` [Example 20, 9-(4-fluoro-2-methylphenyl)-4-((1-methyl-1H-pyrazol-4-yl)methyl)-N-(1-methylcyclopropyl)-5-oxo-1,2,4,5-tetrahydroimidazo[1,2-a]quinazoline-7-sulfonamide], less than 100 nM.

`Cn1cc(CN2C(=O)c3cc(S(=O)(=O)NC4(C)CC4)cc(-c4ccc(Cl)cc4)c3N3CCN=C23)cn1` [Example 21, 9-(4-chlorophenyl)-4-((1-methyl-1H-pyrazol-4-yl)methyl)-N-(1-methylcyclopropyl)-5-oxo-1,2,4,5-tetrahydroimidazo[1,2-a]quinazoline-7-sulfonamide] registered an IC50 of 100 to 1000 nM. The result for `C[C@@H]1CN=C2N(Cc3cnn(C)c3)C(=O)c3cc(S(=O)(=O)NC4(C)CC4)cc(C4CCN(C)CC4)c3N21` [Example 22, (R)-1-methyl-4-((1-methyl-1H-pyrazol-4-yl)methyl)-N-(1-methylcyclopropyl)-9-(1-methylpiperidin-4-yl)-5-oxo-1,2,4,5-tetrahydroimidazo[1,2-a]quinazoline-7-sulfonamide] reads 100 to 1000 nM. Take `C[C@@H]1CN=C2N(Cc3cn(C)nc3C(F)(F)F)C(=O)c3cc(S(=O)(=O)NC4(C)CC4)cc(Br)c3N21` [Example 23, (R)-9-bromo-1-methyl-4-((1-methyl-3-(trifluoromethyl)-1H-pyrazol-4-yl)methyl)-N-(1-methylcyclopropyl)-5-oxo-1,2,4,5-tetrahydroimidazo[1,2-a]quinazoline-7-sulfonamide]: the half-maximal inhibitory concentration (IC50) was less than 100 nM. The value for `C[C@@H]1CN=C2N(Cc3cn(C)nc3C(F)F)C(=O)c3cc(S(=O)(=O)NC4(C)CC4)ccc3N21` [Example 24, (R)-4-((3-(difluoromethyl)-1-methyl-1H-pyrazol-4-yl)methyl)-1-methyl-N-(1-methylcyclopropyl)-5-oxo-1,2,4,5-tetrahydroimidazo[1,2-a]quinazoline-7-sulfonamide] was less than 100 nM; that for `Cc1cc(F)ccc1-c1cc(S(=O)(=O)NC2(C)CC2)cc2c1N1CC(C)(C)N=C1N(Cc1cnn(C)c1)C2=O` [Example 25, 9-(4-fluoro-2-methylphenyl)-2,2-dimethyl-4-((1-methyl-1H-pyrazol-4-yl)methyl)-N-(1-methylcyclopropyl)-5-oxo-1,2,4,5-tetrahydroimidazo[1,2-a]quinazoline-7-sulfonamide] was less than 100 nM. The value for `Cn1cc(CN2C(=O)c3cc(S(=O)(=O)NC4(C)CC4)cc(C4=CCCC4)c3N3CCN=C23)cn1` [Example 26, 9-(cyclopent-1-en-1-yl)-4-((1-methyl-1H-pyrazol-4-yl)methyl)-N-(1-methylcyclopropyl)-5-oxo-1,2,4,5-tetrahydroimidazo[1,2-a]quinazoline-7-sulfonamide] was 100 to 1000 nM.
